Data as given in ChEMBL document CHEMBL1914313, “Monosubstituted γ-lactam and conformationally constrained 1,3-diaminopropan-2-ol transition-state isostere inhibitors of β-secretase (BACE)” (Bioorg Med Chem Lett, 2011).

Tests used:
Beta-secretase 1 [1] = molecular target: T1, Beta-secretase 1 (Homo sapiens, UniProt P56817); assay: Ratio of IC50 for BACE1 in human HEK293 cells expressing swedish mutant AP to IC50 for BACE1; assay type: cell-based
Beta-secretase 1 [2] = molecular target: T1, Beta-secretase 1; assay: Inhibition of BACE1 in human HEK293 cells expressing swedish mutant APP; assay type: cell-based
Beta-secretase 1 [3] = molecular target: T1, Beta-secretase 1; assay: Inhibition of BACE1 by HPLC method
P-glycoprotein = assay: Efflux ratio of permeability across basolateral to apical side over apical to basolateral side in human Caco2 cells expressing p-glycoprotein; assay type: ADME, cell-based; settings: Caco-2
[4] = Selectivity for BACE1 over cathepsin D
[5] = Selectivity for BACE1 over cathepsin E
[6] = Selectivity for BACE1 over pepsin

T1 sequence (P56817 whole entry): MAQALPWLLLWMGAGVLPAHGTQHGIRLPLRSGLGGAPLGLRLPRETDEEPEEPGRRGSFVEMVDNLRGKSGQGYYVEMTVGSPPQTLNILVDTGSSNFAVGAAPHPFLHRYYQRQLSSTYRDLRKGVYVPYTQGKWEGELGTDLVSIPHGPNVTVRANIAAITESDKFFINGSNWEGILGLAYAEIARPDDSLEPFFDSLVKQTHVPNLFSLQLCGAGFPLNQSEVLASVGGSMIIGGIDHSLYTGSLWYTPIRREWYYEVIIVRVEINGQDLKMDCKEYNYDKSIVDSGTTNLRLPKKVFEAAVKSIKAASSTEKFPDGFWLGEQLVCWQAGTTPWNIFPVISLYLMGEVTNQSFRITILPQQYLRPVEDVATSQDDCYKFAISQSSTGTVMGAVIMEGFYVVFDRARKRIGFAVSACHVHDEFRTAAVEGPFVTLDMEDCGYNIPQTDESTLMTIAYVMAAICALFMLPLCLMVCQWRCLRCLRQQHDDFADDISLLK

SMILES	IC50 (Beta-secretase 1 [2]) [nM]	IC50 (Beta-secretase 1 [3]) [nM]	further results
CCCC[C@H]1CCN([C@@H](CCc2ccccc2)C(=O)N[C@@H](Cc2cc(F)cc(F)c2)[C@H](O)[C@H]2Cc3ccccc3CN2)C1=O	1400		Ratio IC50 (Beta-secretase 1 [1]): > 10
CCCO[C@H]1CN[C@@H]([C@@H](O)[C@H](Cc2cc(F)cc(F)c2)NC(=O)[C@H](C)N2CC[C@H](C(C)C)C2=O)C1	390	160	
CCC(C)[C@@]1(NC(C)=O)CCN([C@@H](CCc2ccccc2)C(=O)N[C@@H](Cc2cc(F)cc(F)c2)[C@H](O)[C@H]2C[C@@H](OCc3cccnc3)CN2)C1=O (stereo partly specified)	2	1.4	
CCCO[C@H]1CN[C@@H]([C@@H](O)[C@H](Cc2cc(F)cc(F)c2)NC(=O)[C@H](CCc2ccccc2)N2CC[C@H](C(C)C)C2=O)C1	99	21	
CCC(C)[C@@]1(NC(C)=O)CCN([C@@H](CCc2ccccc2)C(=O)N[C@@H](Cc2cc(F)cc(F)c2)[C@H](O)[C@H]2C[C@@H](Oc3cccnc3)CN2)C1=O (stereo partly specified)	2.5	5.9	
COc1cccc(CNC[C@@H](O)[C@H](Cc2cc(F)cc(F)c2)NC(=O)[C@H](C)N2CC[C@H](CC(C)C)C2=O)c1	67	89	
CCC(C)[C@@]1(NC(C)=O)CCN([C@@H](C)C(=O)N[C@@H](Cc2cc(F)cc(F)c2)[C@H](O)[C@H]2C[C@H](O)CN2)C1=O (stereo partly specified)	> 660	31	
CCC[C@@H](O)[C@H]1CCN([C@@H](CCc2ccccc2)C(=O)N[C@@H](Cc2cc(F)cc(F)c2)[C@H](O)CNCc2cccc(OC)c2)C1=O	90	5.2	
CCC(C)[C@@]1(NC(C)=O)CCN([C@@H](CCc2ccccc2)C(=O)N[C@@H](Cc2cc(F)cc(F)c2)[C@H](O)[C@H]2C[C@@H](N)CN2)C1=O (stereo partly specified)	270	34	
COc1cccc(CNC[C@@H](O)[C@H](Cc2cc(F)cc(F)c2)NC(=O)[C@H](CCc2ccccc2)N2CC[C@@](CC3CC3)(NC(C)=O)C2=O)c1	10	11	
CCCO[C@H]1CN[C@@H]([C@@H](O)[C@H](Cc2cc(F)cc(F)c2)NC(=O)[C@H](CCc2ccccc2)N2CC[C@H]([C@H](O)CCC)C2=O)C1	48	4.7	
CCC(C)[C@@]1(NC(C)=O)CCN([C@@H](CCc2ccccc2)C(=O)N[C@@H](Cc2cc(F)cc(F)c2)[C@H](O)[C@H]2C[C@@H](OCc3ccc(F)cc3)CN2)C1=O (stereo partly specified)	8.9	10	
CCC(C)[C@@]1(NC(C)=O)CCN([C@@H](CCc2ccccc2)C(=O)N[C@@H](Cc2cc(F)cc(F)c2)[C@H](O)[C@H]2C[C@@H](OCc3cccc(C#N)c3)CN2)C1=O (stereo partly specified)	4.2	3	
CCC(C)[C@@]1(NC(C)=O)CCN([C@@H](CCc2ccccc2)C(=O)N[C@@H](Cc2cc(F)cc(F)c2)[C@H](O)[C@H]2Cc3cccc(OC)c3CN2)C1=O (stereo partly specified)	20	4.2	
COc1cccc(CNC[C@@H](O)[C@H](Cc2cc(F)cc(F)c2)NC(=O)[C@H](CCc2ccccc2)N2CC[C@H](CC(C)C)C2=O)c1	240	20	
CCC(C)[C@@]1(NC(C)=O)CCN([C@@H](CCc2ccccc2)C(=O)N[C@@H](Cc2cc(F)cc(F)c2)[C@H](O)[C@H]2C[C@@H](O)CN2)C1=O (stereo partly specified)	29	6.5	
CCC(C)[C@@]1(NC(C)=O)CCN([C@@H](CCc2ccccc2)C(=O)N[C@@H](Cc2cc(F)cc(F)c2)[C@H](O)CNCc2cccc(OC)c2)C1=O (stereo partly specified)		6.1	
CCC[C@@H](O)[C@H]1CCN([C@@H](C)C(=O)N[C@@H](Cc2cc(F)cc(F)c2)[C@H](O)CNCc2cccc(OC)c2)C1=O	27	68	
CCC[C@@H](O)[C@H]1CCN([C@@H](C)C(=O)N[C@@H](Cc2cc(F)cc(F)c2)[C@H](O)[C@H]2C[C@H](O)CN2)C1=O	870	40	
CC(C)C[C@H]1CCN([C@@H](C)C(=O)N[C@@H](Cc2cc(F)cc(F)c2)[C@H](O)[C@H]2C[C@@H](Oc3ccccn3)CN2)C1=O	330		
CCCO[C@H]1CN[C@@H]([C@@H](O)[C@H](Cc2cc(F)cc(F)c2)NC(=O)[C@H](CCc2ccccc2)N2CC[C@@](CC(C)C)(NC(C)=O)C2=O)C1	2		efflux ratio (P-glycoprotein): > 12
CCCC[C@H]1CCN([C@@H](C)C(=O)N[C@@H](Cc2cc(F)cc(F)c2)[C@H](O)[C@H]2C[C@H](O)CN2)C1=O	1400	96	
CCCC[C@H]1CCN([C@@H](C)C(=O)N[C@@H](Cc2cc(F)cc(F)c2)[C@H](O)[C@H]2C[C@@H](OCCC)CN2)C1=O	68	87	efflux ratio (P-glycoprotein): > 17
COc1cccc(CNC[C@@H](O)[C@H](Cc2cc(F)cc(F)c2)NC(=O)[C@H](CCc2ccccc2)N2CC[C@H](C(C)C)C2=O)c1	220	75	

SMILES	IC50 (Beta-secretase 1 [2]) [nM]	IC50 (Beta-secretase 1 [3]) [nM]	further results
CCC(C)[C@@]1(NC(C)=O)CCN([C@@H](CCc2ccccc2)C(=O)N[C@@H](Cc2cc(F)cc(F)c2)[C@H](O)[C@H]2C[C@H](N)CN2)C1=O (stereo partly specified)	190	50	
CCC(C)[C@@]1(NC(C)=O)CCN([C@@H](CCc2ccccc2)C(=O)N[C@@H](Cc2cc(F)cc(F)c2)[C@H](O)[C@H]2C[C@@H](Oc3ccccc3)CN2)C1=O (stereo partly specified)	1.4	2.6	
CCC(C)[C@@]1(NC(C)=O)CCN([C@@H](CCc2ccccc2)C(=O)N[C@@H](Cc2cc(F)cc(F)c2)[C@H](O)[C@H]2C[C@@H](Oc3ccccn3)CN2)C1=O (stereo partly specified)	2.1	2.6	
CCCO[C@H]1CN[C@@H]([C@@H](O)[C@H](Cc2cc(F)cc(F)c2)NC(=O)[C@H](C)N2CC[C@H](CC(C)C)C2=O)C1	110	35	efflux ratio (P-glycoprotein): 32
CCC[C@@H](O)[C@H]1CCN([C@@H](CCc2ccccc2)C(=O)N[C@@H](Cc2cc(F)cc(F)c2)[C@H](O)[C@H]2C[C@H](O)CN2)C1=O	220	16	
CCC(C)[C@@]1(NC(C)=O)CCN([C@@H](CCc2ccccc2)C(=O)N[C@@H](Cc2cc(F)cc(F)c2)[C@H](O)[C@H]2C[C@@H](OCc3ccccn3)CN2)C1=O (stereo partly specified)	1.3	1.5	
COc1cccc(CNC[C@@H](O)[C@H](Cc2cc(F)cc(F)c2)NC(=O)[C@H](C)N2CC[C@@](CC3CC3)(NC(C)=O)C2=O)c1	27	46	
CCCC[C@H]1CCN([C@@H](CCc2ccccc2)C(=O)N[C@@H](Cc2cc(F)cc(F)c2)[C@H](O)CNCc2cccc(OC)c2)C1=O	350	38	
CCCC[C@H]1CCN([C@@H](CCc2ccccc2)C(=O)N[C@@H](Cc2cc(F)cc(F)c2)[C@H](O)[C@H]2C[C@@H](Oc3ccccn3)CN2)C1=O	360		
CC(C)C[C@H]1CCN([C@@H](CCc2ccccc2)C(=O)N[C@@H](Cc2cc(F)cc(F)c2)[C@H](O)[C@H]2C[C@@H](Oc3ccccn3)CN2)C1=O	510		
CCCC[C@H]1CCN([C@@H](CCc2ccccc2)C(=O)N[C@@H](Cc2cc(F)cc(F)c2)[C@H](O)[C@H]2C[C@H](O)CN2)C1=O	720	110	
CCCO[C@H]1CN[C@@H]([C@@H](O)[C@H](Cc2cc(F)cc(F)c2)NC(=O)[C@H](CCc2ccccc2)N2CC[C@H](CC(C)C)C2=O)C1	69	5.7	
CCCO[C@H]1CN[C@@H]([C@@H](O)[C@H](Cc2cc(F)cc(F)c2)NC(=O)[C@H](CCc2ccccc2)N2CC[C@H](COC)C2=O)C1	89	23	
COC[C@H]1CCN([C@@H](CCc2ccccc2)C(=O)N[C@@H](Cc2cc(F)cc(F)c2)[C@H](O)CNCc2cccc(OC)c2)C1=O	210	32	
CCC(C)[C@@]1(NC(C)=O)CCN([C@@H](CCc2ccccc2)C(=O)N[C@@H](Cc2cc(F)cc(F)c2)[C@H](O)[C@H]2C[C@@H](OCc3cccc(C(F)(F)F)c3)CN2)C1=O (stereo partly specified)	71	2.7	
COC[C@H]1CCN([C@@H](C)C(=O)N[C@@H](Cc2cc(F)cc(F)c2)[C@H](O)CNCc2cccc(OC)c2)C1=O	400	480	
CCC(C)[C@@]1(NC(C)=O)CCN([C@@H](CCc2ccccc2)C(=O)N[C@@H](Cc2cc(F)cc(F)c2)[C@H](O)[C@H]2C[C@@H](OCc3ccccc3)CN2)C1=O (stereo partly specified)	12		
CCCO[C@H]1CN[C@@H]([C@@H](O)[C@H](Cc2cc(F)cc(F)c2)NC(=O)[C@H](C)N2CC[C@H]([C@H](O)CCC)C2=O)C1	55	70	
CCCO[C@H]1CN[C@@H]([C@@H](O)[C@H](Cc2cc(F)cc(F)c2)NC(=O)[C@H](CCc2ccccc2)N2CC[C@](NC(C)=O)(C(C)CC)C2=O)C1 (stereo partly specified)	2.7	2.6	Selectivity ratio [4]: 31; Selectivity ratio [5]: 31; Selectivity ratio [6]: 31
CCCC[C@H]1CCN([C@@H](CCc2ccccc2)C(=O)N[C@@H](Cc2cc(F)cc(F)c2)[C@H](O)[C@H]2C[C@@H](O)CN2)C1=O	650	25	
CCC(C)[C@@]1(NC(C)=O)CCN([C@@H](CCc2ccccc2)C(=O)N[C@@H](Cc2cc(F)cc(F)c2)[C@H](O)[C@H]2Cc3ccccc3CN2)C1=O (stereo partly specified)	110	54	
COc1cccc(CNC[C@@H](O)[C@H](Cc2cc(F)cc(F)c2)NC(=O)[C@H](C)N2CC[C@H](C(C)C)C2=O)c1	240	170	
CC(=O)N[C@]1(CC(C)C)CCN([C@@H](CCc2ccccc2)C(=O)N[C@@H](Cc2cc(F)cc(F)c2)[C@H](O)[C@H]2Cc3ccccc3CN2)C1=O	9.5	8.6	
CCCC[C@H]1CCN([C@@H](C)C(=O)N[C@@H](Cc2cc(F)cc(F)c2)[C@H](O)[C@H]2Cc3ccccc3CN2)C1=O	720		Ratio IC50 (Beta-secretase 1 [1]): > 10
